In EP4417607A1, “HETEROCYCLIC COMPOUND AS SOS1 INHIBITOR AND USES THEREOF” (Nanjing Zaiming Pharmaceutical Co., Ltd., priority 2021, dated 2023):

Molecular target: T1, KRAS G12D::SOS1 binding (Homo sapiens, UniProt Q07889)
T1 construct: purchased Cisbio 63ADK000CB21PEH
T1 sequence (Q07889 1-1333): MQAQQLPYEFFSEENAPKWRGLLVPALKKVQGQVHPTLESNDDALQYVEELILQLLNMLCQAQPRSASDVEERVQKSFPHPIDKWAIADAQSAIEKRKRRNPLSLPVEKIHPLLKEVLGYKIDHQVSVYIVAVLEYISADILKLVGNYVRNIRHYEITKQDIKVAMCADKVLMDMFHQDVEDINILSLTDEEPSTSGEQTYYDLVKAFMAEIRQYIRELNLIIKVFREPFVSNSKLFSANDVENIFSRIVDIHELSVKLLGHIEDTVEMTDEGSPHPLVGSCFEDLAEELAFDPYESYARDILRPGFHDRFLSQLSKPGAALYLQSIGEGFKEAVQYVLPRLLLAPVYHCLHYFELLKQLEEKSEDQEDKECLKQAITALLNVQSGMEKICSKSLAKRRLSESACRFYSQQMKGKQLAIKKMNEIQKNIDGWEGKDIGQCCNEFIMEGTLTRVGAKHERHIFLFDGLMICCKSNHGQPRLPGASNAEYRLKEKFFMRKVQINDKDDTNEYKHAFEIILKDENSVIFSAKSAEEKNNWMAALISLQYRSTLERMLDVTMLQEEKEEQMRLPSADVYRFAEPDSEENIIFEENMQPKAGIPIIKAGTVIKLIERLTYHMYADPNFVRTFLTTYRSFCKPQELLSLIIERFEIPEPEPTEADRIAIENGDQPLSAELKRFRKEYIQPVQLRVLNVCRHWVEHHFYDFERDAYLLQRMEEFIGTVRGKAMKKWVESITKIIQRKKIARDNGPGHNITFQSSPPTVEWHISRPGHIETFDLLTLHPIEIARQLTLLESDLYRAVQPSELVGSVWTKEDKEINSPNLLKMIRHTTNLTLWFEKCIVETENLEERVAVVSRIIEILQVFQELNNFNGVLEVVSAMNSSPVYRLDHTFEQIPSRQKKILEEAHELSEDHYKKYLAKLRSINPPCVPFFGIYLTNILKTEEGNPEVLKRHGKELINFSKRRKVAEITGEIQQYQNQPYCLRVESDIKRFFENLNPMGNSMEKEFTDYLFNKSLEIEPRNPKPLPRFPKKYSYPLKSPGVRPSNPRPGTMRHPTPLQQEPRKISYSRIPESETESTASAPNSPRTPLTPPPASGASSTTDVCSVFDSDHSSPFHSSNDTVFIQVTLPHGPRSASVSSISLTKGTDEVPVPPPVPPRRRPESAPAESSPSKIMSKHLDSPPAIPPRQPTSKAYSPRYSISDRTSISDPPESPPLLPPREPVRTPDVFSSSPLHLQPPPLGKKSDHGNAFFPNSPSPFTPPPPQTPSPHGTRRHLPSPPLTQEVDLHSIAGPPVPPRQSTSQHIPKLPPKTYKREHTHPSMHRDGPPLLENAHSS
Assay: KRAS G12D::SOS1 binding inhibition (KRAS-G12D/SOS1 binding assay kit, Cisbio)
Settings: GTP 10 µM
Procedure: The inhibitory effect of the compounds of the present invention on KRAS G12D:: SOS 1 binding was assessed using KRAS-G12D/SOS1 BINDING ASSAY KITS (Cisbio, Cat. No. 63ADK000CB21PEH).
The test compound (10 mM stock solution) was diluted […] to 0.1 mM with 100% DMSO and diluted at a ratio of 1:3 in a 384-well dilution plate for 11 concentrations. 0.1 µL of the gradiently-diluted compound solution was transferred to a 384-well plate using Echo. 2 replicate wells were set for each compound. The solution was centrifuged at 1000 rpm/min for 1 min. 5 µL of 4X KRAS G12D (final concentration 1X) and a GTP solution (final concentration 10 µM, sigma, Cat. No. V900868) were transferred to the 384-well reaction plate. The mixture was centrifuged at 1000 rpm/min for 1 min and incubated at 25 °C for 15 min. 5 µL of a 4X SOS1 solution (final concentration 1X) was transferred to the 384-well reaction plate. The solution was centrifuged at 1000 rpm/min for 1 min and incubated at 25 °C for 45 min. The final concentrations of BAY-293 compound were 10, 3.33, 1.11, 0.37, 0.12, 0.04, 0.014, 0.0046, 0.0015, 0.0005, 0.00017, and 0 µM. The final concentrations of the test compound were 10, 3.33, 1.11, 0.37, 0.12, 0.04, 0.014, 0.0046, 0.0015, 0.0005, 0.00017, and 0 µM. The final concentrations of DMSO were all 0.5%. 10 µL of a 2X assay reagent solution was transferred to the 384-well reaction plate. The solution was centrifuged at 1000 rpm/min for 1 min and incubated at 4 °C for 180 min. An Envision multifunctional microplate reader was used to read at an excitation wavelength of […] and an emission wavelength of 615 nm. The signal intensity of 665/615 ratio was used to characterize the degree of enzyme activity. Data processing: compound IC50 was fitted by Graphpad Prism 8 nonlinear regression equation: Negative control: DMSO
IC50 (half maximal inhibitory concentration) of the compound was obtained using the following nonlinear fitting formula: Y = Bottom + (Top−Bottom)/(1+10^(∧)((LogIC50−X)*HillSlope)) [formula] • X: log value of the concentration of the test compound • Y: inhibition percentage
Bottom is the minimum inhibition percentage, Top is the maximum inhibition percentage, and HillSlope is the Hill slope.

Structure (SMILES): COc1c(=O)n(N2CCOCC2)cc2c(N[C@H](C)c3cccc(C(F)F)c3F)nc(C)nc12 [Example 20, (R)-4-((1-(3-(difluoromethyl)-2-fluorophenyl)ethyl)amino)-8-methoxy-2-methyl-6-morpholinepyrido[4,3-d]pyrimidine-7(6H)-one]
- IC50: 7.46 nM

Structure (SMILES): [2H]C([2H])([2H])Oc1c(=O)n(C2(CF)CC2)cc2c(N[C@H](C)c3cccc(C(F)F)c3F)nc(C)nc12 [Example 23, (R)-4-((1-(3-(difluoromethyl)-2-fluorophenyl)ethyl)amino)-6-(1-(fluoromethyl)cyclopropyl)-8-(methoxy-d3)-2-methylpyrido[4,3-d]pyrimidine-7(6H)-one]
- IC50: 4.17 nM

Structure (SMILES): Cc1nc(N[C@H](C)c2cccc(C(F)F)c2F)c2cn(C3(CF)CC3)c(=O)c(N3CCOCC3)c2n1 [Example 34, (R)-4-((1-(3-(difluoromethyl)-2-fluorophenyl)ethyl)amino)-6-(1-(fluoromethyl)cyclopropyl)-2-methyl-8-morpholinylpyrido[4,3-d]pyrimidine-7(6H)-one]
- IC50: 6.55 nM

Structure (SMILES): Cc1nc(N[C@H](C)c2cccc(C(F)F)c2F)c2cn(C3(CF)CC3)c(=O)c(N3CCOC[C@@H]3C)c2n1 [Example 40, 4-(((R)-1-(3-(difluoromethyl)-2-fluorophenyl)ethyl)amino)-6-(1-(fluoromethyl)cyclopropyl)-2-methyl-8-((S)-3-methylmorpholine)pyrido[4,3-d]pyrimidine-7(6H)-one]
- IC50: 3.84 nM

Structure (SMILES): [2H][C@](C)(Nc1nc(C)nc2c(N3CCOCC3)c(=O)n(C3(CF)CC3)cc12)c1cccc(C(F)F)c1F [Example 55, (R)-4-((1-(3-(difluoromethyl)-2-fluorophenyl)ethyl-1-d)amino)-6-(1-(fluoromethyl)cyclopropyl)-2-methyl-8-morpholinylpyrido[4,3-d]pyrimidine-7(6H)-one]
- IC50: 6.3 nM
